According to the supplement of paper PMC6045584:
± gives the standard deviation of the averaged measurements.

Key:
[1] = compound: T1, Nc1ncn([C@H]2C[C@H](O)[C@@H](CO)O2)c(=O)n1 [DECITABINE]; assay: surviving fraction relative to DMSO-only wells; higher = less growth inhibition; details: exposure time: 5 days
Procedure, shortened: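 Surviving fraction was calculated by normalising CellTiter-Glo luminescence to the median of DMSO-only wells. Tumour cell lines in log phase were seeded in 384-well plates at 250–500 cells per well, and 24 hours later were exposed continuously for five days to inhibitors at 0.5, 1, 5, 10, 50, 100, 500 and 1000 nM.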

[2] = compound: COc1cc2c(cc1O)CC[C@@H]1[C@@H]2CC[C@]2(C)[C@@H](O)CC[C@@H]12 [2-METHOXYESTRADIOL]; assay: area under dose-response curve of surviving fraction (unscaled, Aref=0) (surviving fraction x log10(nM)); higher = more resistant; details: exposure time: 5 days; dose range 0.5-1000 nM
Procedure, shortened: (§1)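 Inhibitor was applied to tumour cell lines at eight concentrations (0.5 to 1000 nM) for five days in 384-well plates. Luminescence from CellTiter-Glo, scaled to DMSO-only wells, gave surviving fractions in three screens per line, and these were fitted by 3-parameter logistic regression with the drc R package. The area under the curve is an unscaled activity area. Aref was 0, and dose was on a log10 scale.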

[3] = compound: CS(=O)(=O)CCNCc1ccc(-c2ccc3ncnc(Nc4ccc(OCc5cccc(F)c5)c(Cl)c4)c3c2)o1 [LAPATINIB]; assay: as above; details: exposure time: 5 days; dose range 0.5-1000 nM
Procedure, shortened: as §1

[4] = compound: T1, DECITABINE; assay: as above; details: exposure time: 5 days; dose range 0.5-1000 nM
Procedure, shortened: as §1

[5] = compound: COc1cccc2c1C(=O)c1c(O)c3c(c(O)c1C2=O)C[C@@](O)(C(=O)CO)C[C@@H]3O[C@H]1C[C@H](N)[C@H](O)[C@H](C)O1 [DOXORUBICIN]; assay: as above; details: exposure time: 5 days; dose range 0.5-1000 nM
Procedure, shortened: as §1

[6] = compound: COc1ccc(C2=N[C@@H](c3ccc(Cl)cc3)[C@@H](c3ccc(Cl)cc3)N2C(=O)N2CCNC(=O)C2)c(OC(C)C)c1 [NUTLIN3]; assay: as above; details: exposure time: 5 days; dose range 0.5-1000 nM
Procedure, shortened: as §1

[7] = compound: CCN(CC)CCCCNc1ncc2cc(-c3cc(OC)cc(OC)c3)c(NC(=O)NC(C)(C)C)nc2n1; assay: as above; details: exposure time: 5 days; dose range 0.5-1000 nM
Procedure, shortened: as §1

[8] = compound: CC[C@@H](C(=O)[C@@H](C)[C@@H](O)[C@H](C)[C@@H]1O[C@@H]([C@@H](CC)C(=O)O)CC[C@@H]1C)[C@H]1O[C@]2(C=C[C@@H](O)[C@]3(CC[C@@](C)([C@H]4CC[C@](O)(CC)[C@H](C)O4)O3)O2)[C@H](C)C[C@@H]1C [SALINOMYCIN]; assay: as above; details: exposure time: 5 days; dose range 0.5-1000 nM
Procedure, shortened: as §1

[9] = compound: Oc1ccc(/C=C/c2cc(O)cc(O)c2)cc1 [RESVERATROL]; assay: as above; details: exposure time: 5 days; dose range 0.5-1000 nM
Procedure, shortened: as §1

[10] = compound: CN(C)CC[C@H](CSc1ccccc1)Nc1ccc(S(=O)(=O)NC(=O)c2ccc(N3CCN(Cc4ccccc4-c4ccc(Cl)cc4)CC3)cc2)cc1[N+](=O)[O-] [ABT-737]; assay: as above; details: exposure time: 5 days; dose range 0.5-1000 nM
Procedure, shortened: as §1

[11] = compound: C=CCNC1=C2C[C@@H](C)C[C@H](OC)[C@H](O)[C@@H](C)/C=C(\C)[C@H](OC(N)=O)[C@@H](OC)/C=C\C=C(/C)C(=O)NC(=CC1=O)C2=O [17-AAG]; assay: as above; details: exposure time: 5 days; dose range 0.5-1000 nM
Procedure, shortened: as §1

[12] = compound: CN1CC[C@H](c2c(O)cc(O)c3c(=O)cc(-c4ccccc4Cl)oc23)[C@H](O)C1 [FLAVOPIRIDOL]; assay: as above; details: exposure time: 5 days; dose range 0.5-1000 nM
Procedure, shortened: as §1

[13] = compound: CS(=O)(=O)c1ccc(C(=O)Nc2ccc(Cl)c(-c3ccccn3)c2)c(Cl)c1 [VISMODEGIB]; assay: as above; details: exposure time: 5 days; dose range 0.5-1000 nM
Procedure, shortened: as §1

Test System | surviving fraction ([1]; 0.5 nM) | surviving fraction ([1]; 1 nM) | surviving fraction ([1]; 5 nM) | surviving fraction ([1]; 10 nM) | surviving fraction ([1]; 50 nM) | surviving fraction ([1]; 100 nM) | surviving fraction ([1]; 500 nM) | surviving fraction ([1]; 1000 nM) | area under dose-response curve [2] | area under dose-response curve [3] | area under dose-response curve [4] | area under dose-response curve [5] | area under dose-response curve [6] | area under dose-response curve [7] | area under dose-response curve [8] | area under dose-response curve [9] | area under dose-response curve [10] | area under dose-response curve [11] | area under dose-response curve [12] | area under dose-response curve [13]
LNCAP PROSTATE | 0.917 ± 0.037 | 1.02 ± 0.11 | 0.954 ± 0.083 | 1.01 ± 0.11 | 0.785 ± 0.02 | 0.695 ± 0.1 | 0.634 ± 0.044 | 0.522 ± 0.0079 | 2.89 | 3.12 | 2.75 | 1.09 | 2.82 | 2.96 | 1.9 | 3.05 | 3.07 | 1.33 | 1.78 | 
MDAMB453 BREAST | 1.04 ± 0.053 | 1.04 ± 0.032 | 1.05 ± 0.093 | 1.07 ± 0.062 | 1.05 ± 0.061 | 1.02 ± 0.059 | 0.88 ± 0.015 | 0.757 ± 0.053 | 3.02 | 3.21 |  | 2.24 | 3.54 | 3.28 | 3.04 | 3.63 | 3.59 | 1.3 | 2.12 | 3.16
NOS1 BONE | 1.07 ± 0.099 | 0.872 ± 0.046 | 1.28 ± 0.055 | 0.989 ± 0.08 | 1.09 ± 0.043 | 0.992 ± 0.074 | 0.977 ± 0.22 | 0.816 ± 0.031 |  | 3.54 | 3.34 | 2.15 | 3.66 | 3.02 | 2.83 | 3.77 | 3.75 | 1.6 | 2.06 | 
RDES SOFT TISSUE | 1.24 ± 0.016 | 1.14 ± 0.033 | 1.18 ± 0.15 | 0.972 ± 0.05 | 1.13 ± 0.13 | 1.29 ± 0.16 | 1.11 ± 0.16 | 1.41 ± 0.28 |  | 4.08 | 3.9 | 1.97 | 3.98 | 3.98 | 2.26 | 4.59 | 2.58 | 2.13 | 2.51 | 
SAOS2 BONE | 1.09 ± 0.027 | 1.11 ± 0.037 | 1.1 ± 0.027 | 1.02 ± 0.042 | 1.01 ± 0.051 | 0.88 ± 0.07 | 0.742 ± 0.057 | 0.581 ± 0.12 |  | 3.95 | 3.06 | 1.85 | 3.66 | 3.79 | 3.15 | 4.04 | 3.87 | 1.66 | 2.19 | 3.12
SCC003 HEADNECK | 1.03 ± 0.038 | 1.03 ± 0.032 | 1.06 ± 0.067 | 1.03 ± 0.055 | 0.922 ± 0.047 | 0.788 ± 0.032 | 0.718 ± 0.032 | 0.635 ± 0.065 |  | 3.11 | 2.94 | 2.03 | 3.48 | 3.36 | 2.91 | 3.64 | 3.76 | 2.38 | 2.22 | 3.24
SCC36 HEADNECK | 1.01 ± 0.05 | 1.01 ± 0.054 | 1.05 ± 0.15 | 1.05 ± 0.09 | 1.04 ± 0.089 | 0.934 ± 0.067 | 0.709 ± 0.054 | 0.648 ± 0.074 |  | 2.91 | 3.08 | 1.98 | 3.65 |  | 2.7 | 3.87 | 3.58 | 1.66 | 2.3 | 2.89
SCC90 HEADNECK | 0.985 ± 0.073 | 0.995 ± 0.065 | 1.11 ± 0.075 | 1.03 ± 0.072 | 1.13 ± 0.074 | 1.11 ± 0.018 | 1.3 ± 0.25 | 1.05 ± 0.17 | 2.68 | 2.81 | 3.6 | 2.36 | 3.5 | 2.96 | 2.84 |  | 3.56 | 2.31 | 2.25 | 2.93
SG43 HEADNECK | 1.02 ± 0.031 | 1.14 ± 0.16 | 0.953 ± 0.11 | 1.03 ± 0.48 | 0.835 ± 0.18 | 0.868 ± 0.2 | 0.812 ± 0.062 | 0.8 ± 0.049 | 2.84 | 2.24 |  | 1.71 | 2.8 | 3.03 | 3.03 | 2.91 | 2.77 | 1.77 | 2.35 | 
SIHA CERVIX | 1.08 ± 0.026 | 0.979 ± 0.052 | 1.08 ± 0.02 | 1.05 ± 0.055 | 1.07 ± 0.055 | 1.08 ± 0.085 | 0.983 ± 0.055 | 0.988 ± 0.11 | 3.15 | 3.53 | 3.46 | 2.16 | 3.54 | 3.08 | 2.93 | 3.61 | 3.73 | 2.23 | 2.19 | 
SUM149 BREAST | 1.11 ± 0.11 | 1.03 ± 0.13 | 0.845 ± 0.047 | 0.807 ± 0.09 | 0.366 ± 0.0027 | 0.359 ± 0.022 | 0.261 ± 0.0076 | 0.245 ± 0.012 | 2.9 | 2.56 | 2.01 | 1.11 | 3.63 |  | 2.62 | 3.39 | 3.39 | 1.29 | 2.09 | 2.98
VP229 BREAST | 1.09 ± 0.062 | 1.13 ± 0.093 | 0.996 ± 0.13 | 0.952 ± 0.11 | 0.966 ± 0.067 | 0.959 ± 0.028 | 0.871 ± 0.056 | 0.798 ± 0.097 | 3.43 | 3.02 |  | 2.61 | 3.5 | 3.78 | 2.4 |  | 3.82 | 1.93 | 2.08 | 3.65
ZR751 BREAST | 1.21 ± 0.096 | 1.2 ± 0.073 | 1.22 ± 0.11 | 1.05 ± 0.16 | 0.988 ± 0.12 | 1.13 ± 0.12 | 0.865 ± 0.012 | 0.866 ± 0.059 |  | 2.92 |  | 2.06 |  | 3.3 | 2.67 | 3.31 | 3.53 | 1.74 | 2.38 | 2.87
